In patent US10544468B2, “Molecular markers and phenotypic screening for metribuzin tolerance” (Monsanto Technology LLC, priority 2012, dated 2020):

Test system: soybeans
Experiment: Field screening for metribuzin tolerance in soybeans (injury rating, 1-9 scale)
Format: in vivo, Glycine max
Conditions: soybean lines containing a heterozygous (CT) allele of NGMAX006079502
Protocol: A rating scale that evaluates the degree of metribuzin sensitivity can also be employed to identify “metribuzin sensitive” and “metribuzin tolerant” plants. An exemplary and non-limiting scale for evaluating the Metribuzin sensitivity phenotype is as follows, where a low number corresponds to a “metribuzin tolerance” phenotype and the a high number correlates to a “metribuzin sensitivity” phenotype: Field screening for metribuzin tolerance in soybeans was performed at the Monsanto Company Soybean Research Station near Mount Olive, N.C. in 2010 and 2011. Metribuzin application rate was 0.5 lbs/acre metribuzin (Sencor®, Bayer Crop Science, Research Triangle Park, N.C., USA) one day prior to planting. Rows were planted as single 6′ row plots with 9 seed per foot. Multiple repetitions were grown per row. Within 24 hours after planting, the trial was irrigated with 0.5″ of water to help incorporate and activate the herbicide. Injury ratings were taken fourteen to twenty one (14-21) days after planting using a 1-9 scale (for example, 1=no damage, 9=completely killed). After identifying the target region through the mapping population described in Example 2, a molecular marker was identified. An association study was done using a soybean molecular marker database. […]

## CSc1nnc(C(C)(C)C)c(=O)n1N [Metribuzin, 4-Amino-6-(1,1-dimethylethyl)-3-(methylthio)-1,2,4-triazin-5(4H)-one]
  metribuzin phenotype in the field: mixed phenotype of both tolerance and sensitivity
